In brackets after ≈: the same amount, converted by molar mass. Read-outs that look alike come from different tables or passages of the source.
How the values were obtained:
[1] = system: Escherichia coli A 261; experiment: MIC in vitro, plate test (agar), Table 1; type: cell-based; conditions: A261, about 37° C, readings 24 and 48 h
Experimental: (§1) The minimum inhibitory concentrations in vitro for some of the new compounds shown in Table 1 (MIC) were determined by the plate test in an agar medium of the following composition: |proteose peptone 10.0 g per liter |5.1 × 10^3 germs were inoculated per plate. […]. Readings were taken after 24 and 48 hours, and the incubation temperature was about 37° C.

[2] = system: Escherichia coli C 165; experiment: MIC in vitro, plate test (agar), Table 1; type: cell-based; conditions: C165, about 37° C, readings 24 and 48 h
Experimental: as §1

[3] = system: Klebsiella pneumonia 63; experiment: MIC in vitro, plate test (agar), Table 1; type: cell-based; conditions: Klebsiella pneumoniae, about 37° C, readings 24 and 48 h
Experimental: as §1

[4] = system: Kletosiella pneumonia 8085; experiment: MIC in vitro, plate test (agar), Table 1; type: cell-based; conditions: about 37° C, readings 24 and 48 h
Experimental: as §1

[5] = system: Proteus vulgaris species; experiment: MIC in vitro, plate test (agar), Table 1; type: cell-based; conditions: about 37° C, readings 24 and 48 h
Experimental: as §1

[6] = system: Pseudomonas aeruginosa Bonn; experiment: MIC in vitro, plate test (agar), Table 1; type: cell-based; conditions: about 37° C, readings 24 and 48 h
Experimental: as §1

[7] = system: Pseudomonas aeruginosa Walter; experiment: MIC in vitro, plate test (agar), Table 1; type: cell-based; conditions: about 37° C, readings 24 and 48 h
Experimental: as §1

[8] = system: Staphylococcus aureus 133; experiment: MIC in vitro, plate test (agar), Table 1; type: cell-based; conditions: about 37° C, readings 24 and 48 h
Experimental: as §1

[9] = system: Streptococcus pyogenes W; experiment: MIC in vitro, plate test (agar), Table 1; type: cell-based; conditions: about 37° C, readings 24 and 48 h
Experimental: as §1

[10] = system: Corynebacterium diphteriae gravis; experiment: MIC, series dilution test (complete medium), Table 2; type: cell-based; conditions: 37° C, 18, 24 and 48 h, read-out: Minimum inhibitory concentration (MIC)
Experimental: (§2) Minimum inhibitory concentration (MIC) in γ/ml of medium, measured by the series dilution test (complete medium), incubation temperatures: 37° C, determination of the MIC after 18, 24 and 48 hours.

[11] = system: Escherichia coli 14; experiment: as above; type: cell-based; conditions: 37° C, 18, 24 and 48 h, read-out: Minimum inhibitory concentration (MIC)
Experimental: as §2

[12] = system: Escherichia coli 183/58; experiment: as above; type: cell-based; conditions: 37° C, 18, 24 and 48 h, read-out: Minimum inhibitory concentration (MIC)
Experimental: as §2

[13] = system: Escherichia coli 2; experiment: as above; type: cell-based; conditions: 37° C, 18, 24 and 48 h, read-out: Minimum inhibitory concentration (MIC)
Experimental: as §2

[14] = system: Escherichia coli 55 B 5; experiment: as above; type: cell-based; conditions: 55B5, 37° C, 18, 24 and 48 h, read-out: Minimum inhibitory concentration (MIC)
Experimental: as §2

[15] = system: Escherichia coli A 261; experiment: as above; type: cell-based; conditions: A261, 37° C, 18, 24 and 48 h, read-out: Minimum inhibitory concentration (MIC)
Experimental: as §2

[16] = system: Escherichia coli C 165; experiment: as above; type: cell-based; conditions: C165, 37° C, 18, 24 and 48 h, read-out: Minimum inhibitory concentration (MIC)
Experimental: as §2

[17] = system: Klebsiella 63; experiment: as above; type: cell-based; conditions: 37° C, 18, 24 and 48 h, read-out: Minimum inhibitory concentration (MIC)
Experimental: as §2

[18] = system: Klebsiella ATCC 10031; experiment: as above; type: cell-based; conditions: ATCC10031, 37° C, 18, 24 and 48 h, read-out: Minimum inhibitory concentration (MIC)
Experimental: as §2

[19] = system: Klebsiella K 10; experiment: as above; type: cell-based; conditions: K10, 37° C, 18, 24 and 48 h, read-out: Minimum inhibitory concentration (MIC)
Experimental: as §2

[20] = system: Mycobacterium tuberculosis H 37 RV; experiment: as above; type: cell-based; conditions: H37RV, 37° C, 18, 24 and 48 h, read-out: Minimum inhibitory concentration (MIC)
Experimental: as §2

[21] = system: Mycoplasma gallisepticum; experiment: as above; type: cell-based; conditions: Mycoplasmoides gallisepticum, 37° C, 18, 24 and 48 h, read-out: Minimum inhibitory concentration (MIC)
Experimental: as §2

[22] = system: Neisseria catharalis N 1/41; experiment: as above; type: cell-based; conditions: N1/41, 37° C, 18, 24 and 48 h, read-out: Minimum inhibitory concentration (MIC)
Experimental: as §2

[23] = system: Proteus mirabilis 2935; experiment: as above; type: cell-based; conditions: 37° C, 18, 24 and 48 h, read-out: Minimum inhibitory concentration (MIC)
Experimental: as §2

[24] = system: Proteus mirabilis G; experiment: as above; type: cell-based; conditions: 37° C, 18, 24 and 48 h, read-out: Minimum inhibitory concentration (MIC)
Experimental: as §2

[25] = system: Proteus vulgaris 1017; experiment: as above; type: cell-based; conditions: 37° C, 18, 24 and 48 h, read-out: Minimum inhibitory concentration (MIC)
Experimental: as §2

[26] = system: Proteus vulgaris 3400; experiment: as above; type: cell-based; conditions: 37° C, 18, 24 and 48 h, read-out: Minimum inhibitory concentration (MIC)
Experimental: as §2

[27] = system: Pseudomonas aeruginosa B; experiment: as above; type: cell-based; conditions: 37° C, 18, 24 and 48 h, read-out: Minimum inhibitory concentration (MIC)
Experimental: as §2

[28] = system: Pseudomonas aeruginosa M; experiment: as above; type: cell-based; conditions: 37° C, 18, 24 and 48 h, read-out: Minimum inhibitory concentration (MIC)
Experimental: as §2

[29] = system: Pseudomonas aeruginosa W; experiment: as above; type: cell-based; conditions: 37° C, 18, 24 and 48 h, read-out: Minimum inhibitory concentration (MIC)
Experimental: as §2

[30] = system: Salmonella paratyphii BB II; experiment: as above; type: cell-based; conditions: 37° C, 18, 24 and 48 h, read-out: Minimum inhibitory concentration (MIC)
Experimental: as §2

[31] = system: Staphylococcus aureus 133; experiment: as above; type: cell-based; conditions: 37° C, 18, 24 and 48 h, read-out: Minimum inhibitory concentration (MIC)
Experimental: as §2

[32] = system: Staphylococcus aureus 7705; experiment: as above; type: cell-based; conditions: 37° C, 18, 24 and 48 h, read-out: Minimum inhibitory concentration (MIC)
Experimental: as §2

[33] = system: Staphylococcus aureus BRL; experiment: as above; type: cell-based; conditions: 37° C, 18, 24 and 48 h, read-out: Minimum inhibitory concentration (MIC)
Experimental: as §2

[34] = system: Streptococcus faecalis ATCC 13; experiment: as above; type: cell-based; conditions: Enterococcus faecalis, ATCC13, 37° C, 18, 24 and 48 h, read-out: Minimum inhibitory concentration (MIC)
Experimental: as §2

[35] = system: Streptococcus faecalis ATCC 8564; experiment: as above; type: cell-based; conditions: Enterococcus faecalis, ATCC8564, 37° C, 18, 24 and 48 h, read-out: Minimum inhibitory concentration (MIC)
Experimental: as §2

[36] = system: Streptococcus faecalis ATCC 8580; experiment: as above; type: cell-based; conditions: Enterococcus faecalis, ATCC8580, 37° C, 18, 24 and 48 h, read-out: Minimum inhibitory concentration (MIC)
Experimental: as §2

[37] = system: Streptococcus faecalis ATCC 8698; experiment: as above; type: cell-based; conditions: Enterococcus faecalis, ATCC8698, 37° C, 18, 24 and 48 h, read-out: Minimum inhibitory concentration (MIC)
Experimental: as §2

[38] = system: Streptococcus faecalis ATCC 8699; experiment: as above; type: cell-based; conditions: Enterococcus faecalis, ATCC8699, 37° C, 18, 24 and 48 h, read-out: Minimum inhibitory concentration (MIC)
Experimental: as §2

[39] = system: Streptococcus faecalis ATCC 8711; experiment: as above; type: cell-based; conditions: Enterococcus faecalis, ATCC8711, 37° C, 18, 24 and 48 h, read-out: Minimum inhibitory concentration (MIC)
Experimental: as §2

[40] = system: Streptococcus faecalis ATCC 9700; experiment: as above; type: cell-based; conditions: Enterococcus faecalis, ATCC9700, 37° C, 18, 24 and 48 h, read-out: Minimum inhibitory concentration (MIC)
Experimental: as §2

[41] = system: Streptococcus faecalis ATCC B. H.; experiment: as above; type: cell-based; conditions: Enterococcus faecalis, 37° C, 18, 24 and 48 h, read-out: Minimum inhibitory concentration (MIC)
Experimental: as §2

[42] = system: Streptococcus faecalis ATCC Blaschke; experiment: as above; type: cell-based; conditions: Enterococcus faecalis, 37° C, 18, 24 and 48 h, read-out: Minimum inhibitory concentration (MIC)
Experimental: as §2

[43] = system: Streptococcus faecalis ATCC durans; experiment: as above; type: cell-based; conditions: Enterococcus faecalis, 37° C, 18, 24 and 48 h, read-out: Minimum inhibitory concentration (MIC)
Experimental: as §2

[44] = system: Streptococcus faecalis ATCC liquef.; experiment: as above; type: cell-based; conditions: Enterococcus faecalis, 37° C, 18, 24 and 48 h, read-out: Minimum inhibitory concentration (MIC)
Experimental: as §2

[45] = system: Streptococcus faecalis ATCC species; experiment: as above; type: cell-based; conditions: Enterococcus faecalis, 37° C, 18, 24 and 48 h, read-out: Minimum inhibitory concentration (MIC)
Experimental: as §2

[46] = system: Mycoplasma gallisepticum; experiment: MIC, series dilution test, measured in a PPLO medium, Table 2; type: cell-based; conditions: Mycoplasmoides gallisepticum, 37° C, 18, 24 and 48 h, read-out: Minimum inhibitory concentration (MIC)
Experimental: as §2
(§3) *)measured in a PPLO medium

[47] = system: Mycoplasma granularum; experiment: as above; type: cell-based; conditions: Acholeplasma granularum, 37° C, 18, 24 and 48 h, read-out: Minimum inhibitory concentration (MIC)
Experimental: as §2, §3

[48] = system: Escherichia coli C 165; experiment: ED100 in mice after intraperitoneal infection, Table 3; type: in vivo; conditions: read-out: effective 100% dose (ED100)
Experimental: (§4) In animal experiments on mice, the effective 100% dose (ED100) in mg/Kg was determined for certain compounds of the invention after intraperitoneal infection and subcutaneous (s.c.) or oral (p.o.) administration of the preparation.

[49] = system: Staphylococcus aureus 133; experiment: as above; type: in vivo; conditions: read-out: effective 100% dose (ED100)
Experimental: as §4

COC(=O)NN=Cc1c(C(=O)O)[n+]([O-])c2ccccc2[n+]1[O-] [Example 13]
MIC [1]: 20 µg/mL (≈ 65.3 µM)
MIC [2]: 50 µg/mL (≈ 163 µM)
MIC [3]: 100 µg/mL (≈ 327 µM)
MIC [4]: 20 µg/mL (≈ 65.3 µM)
MIC [5]: 10 µg/mL (≈ 32.7 µM)
MIC [6]: 100 µg/mL (≈ 327 µM)
MIC [7]: 100 µg/mL (≈ 327 µM)
MIC [8]: 10 µg/mL (≈ 32.7 µM)
MIC [9]: 100 µg/mL (≈ 327 µM)
MIC [10]: 5 to 10 µg/mL (≈ 16.3 to 32.7 µM)
MIC [11]: 12 to 25 µg/mL (≈ 39.2 to 81.6 µM)
MIC [12]: 6 to 12 µg/mL (≈ 19.6 to 39.2 µM)
MIC [13]: 25 to 50 µg/mL (≈ 81.6 to 163 µM)
MIC [14]: 3 to 6 µg/mL (≈ 9.8 to 19.6 µM)
MIC [15]: 25 to 50 µg/mL (≈ 81.6 to 163 µM)
MIC [16]: 50 to 100 µg/mL (≈ 163 to 327 µM)
MIC [17]: 50 µg/mL (≈ 163 µM)
MIC [18]: 1 to 2 µg/mL (≈ 3.27 to 6.53 µM)
MIC [19]: 50 µg/mL (≈ 163 µM)
MIC [20]: 40 µg/mL (≈ 131 µM)
MIC [21]: 6 µg/mL (≈ 19.6 µM)
MIC [22]: 6 µg/mL (≈ 19.6 µM)
MIC [23]: 12 µg/mL (≈ 39.2 µM)
MIC [24]: 12 µg/mL (≈ 39.2 µM)
MIC [25]: 17 µg/mL (≈ 55.5 µM)
MIC [26]: 50 µg/mL (≈ 163 µM)
MIC [27]: 25 µg/mL (≈ 81.6 µM)
MIC [28]: 25 µg/mL (≈ 81.6 µM)
MIC [29]: 400 µg/mL (≈ 1310 µM)
MIC [30]: 12 µg/mL (≈ 39.2 µM)
MIC [31]: 1 µg/mL (≈ 3.27 µM)
MIC [32]: 12 µg/mL (≈ 39.2 µM)
MIC [33]: 12 µg/mL (≈ 39.2 µM)
MIC [34]: 25 µg/mL (≈ 81.6 µM)
MIC [35]: 100 µg/mL (≈ 327 µM)
MIC [36]: 50 µg/mL (≈ 163 µM)
MIC [37]: 100 µg/mL (≈ 327 µM)
MIC [38]: 100 µg/mL (≈ 327 µM)
MIC [39]: 50 µg/mL (≈ 163 µM)
MIC [40]: 50 µg/mL (≈ 163 µM)
MIC [41]: 100 µg/mL (≈ 327 µM)
MIC [42]: 6 to 25 µg/mL (≈ 19.6 to 81.6 µM)
MIC [43]: 25 µg/mL (≈ 81.6 µM)
MIC [44]: 50 µg/mL (≈ 163 µM)
MIC [45]: 100 µg/mL (≈ 327 µM)
MIC [46]: 6 µg/mL (≈ 19.6 µM)
MIC [47]: 3 µg/mL (≈ 9.8 µM)
ED100 ([48]; C165, oral (p.c. [sic])): 25 mg/kg
ED100 ([48]; C165, sc, s.c.): 25 mg/kg
ED100 ([49]; Staphylococcus aureus, 133, oral (p.c. [sic])): 50 mg/kg
ED100 ([49]; Staphylococcus aureus, 133, sc, s.c.): 25 mg/kg

Source: patent publication US3984547A, “Veterinary feedstuffs” (Bayer Aktiengesellschaft, priority 1971, dated 1976)
